≈ marks a conversion by molar mass, not a printed value. Calls of active or inactive are those of the source. The rule behind the calls is not given here.
Tests used:
HeLa = test: Cytotoxicity against human HeLa cells assessed as inhibition of cell proliferation after 72 hrs by XTT assay; type: functional, cell-based
HL-60 = test: Cytotoxicity against human HL60 cells assessed as inhibition of cell proliferation after 72 hrs by XTT assay; type: functional, cell-based; conditions: HL-60, 72 h
[1] = Inhibition of calf brain tubulin polymerization after 20 mins by spectrophotometric analysis; design: species or system Bos taurus
HT-29 [2] = test: Cytotoxicity against human HT-29 cells assessed as inhibition of cell proliferation after 72 hrs by XTT assay; type: functional, cell-based; conditions: HT-29, 72 h
[3] = Aqueous solubility of the compound in phosphate buffer at pH 7 after 48 hrs by spectrophotometric analysis; type: physicochemical
HT-29 [4] = test: Cell cycle arrest in human HT-29 cells assessed as accumulation at G2/M phase at 100 nM after 24 hrs by propidium iodide staining-based flow cytometric analysis; type: functional
HT-29 [5] = test: Inhibition of autophagy in human HT-29 cells assessed as accumulation of slower migrating LC3-I band at 35 nM after 24 to 72 hrs by Western blot analysis; type: functional, cell-based
HCT-116 = test: Induction of microtubule disruption in human HCT116 cells at 50 nM after 24 hrs by DAPI staining-based confocal microscopic analysis; type: cell-based
HT-29 [6] = test: Inhibition of autophagy in human HT-29 cells assessed as absence of faster migrating LC3-II band decay at 35 nM after 24 to 72 hrs by Western blot analysis; type: functional, cell-based
HT-29 [7] = test: Cell cycle arrest in human HT-29 cells assessed as accumulation at G2/M phase at 50 nM after 24 hrs by propidium iodide staining-based flow cytometric analysis; type: functional

| SMILES | IC50 (HeLa) | IC50 (HL-60) | IC50 [1] | IC50 (HT-29 [2]) | solubility at 48 h [3] | Activity (HT-29 [4]) | inhibition (HT-29 [5]) | Activity (HCT-116) | inhibition (HT-29 [6]) | Activity (HT-29 [7]) |
| --- | --- | --- | --- | --- | --- | --- | --- | --- | --- | --- |
| COc1cc(C(=O)c2ccc(N(C)C)c(C=O)c2)cc(OC)c1OC | > 1000 nM | > 1000 nM | > 20000 nM | > 1000 nM | 8.9 µg/mL (≈ 25.9 µM) | – | – | – | – | – |
| COc1cc(C(=O)c2ccc(N(C)C)cc2)cc(OC)c1OC | 90 nM | 200 nM | > 20000 nM | 400 nM | – | – | – | – | – | – |
| CCn1c2ccccc2c2cc(/C(=N/O)c3cc(OC)c(OC)c(OC)c3)ccc21 | 100 nM | 100 nM | 1600 nM | 300 nM | 4.2 µg/mL (≈ 10.4 µM) | inactive | – | – | – | – |
| COc1cc(C(=O)c2ccc(N(C)C)c(N)c2)cc(OC)c1OC | 600 nM | 700 nM | > 5000 nM | 900 nM | – | – | – | – | – | – |
| C=C(c1ccc(N(C)C)c(C=NO)c1)c1cc(OC)c(OC)c(OC)c1 | 900 nM | 1000 nM | > 5000 nM | > 1000 nM | 123 µg/mL (≈ 345 µM) | – | – | – | – | – |
| CCn1c2ccccc2c2cc(C(=O)c3cc(OC)c(OC)c(OC)c3)ccc21 | 700 nM | 700 nM | 1600 nM | 400 nM | 2 µg/mL (≈ 5.14 µM) | inactive | – | – | – | – |
| C=C(c1ccc(N(C)C)cc1)c1cc(OC)c(OC)c(OC)c1 | 40 nM | 10 nM | 1900 nM | 70 nM | 30 µg/mL (≈ 95.7 µM) | – | Active | Active | Active | >85% |
| COc1ccc(/C=C\c2cc(OC)c(OC)c(OC)c2)cc1O [COMBRETASTATIN A4] | – | – | 3000 nM | 30 nM | – | – | – | – | – | – |
| COc1cc(/C(=N/O)c2ccc(N3CCCC3)cc2)cc(OC)c1OC | 600 nM | 400 nM | > 5000 nM | > 1000 nM | 13.7 µg/mL (≈ 38.4 µM) | – | – | – | – | – |
| C=C(c1ccc(N(C)C)c(C=O)c1)c1cc(OC)c(OC)c(OC)c1 | 800 nM | 900 nM | > 10000 nM | > 1000 nM | 107 µg/mL (≈ 313 µM) | – | – | – | – | – |
| C=C(c1ccc(N2CCCC2)cc1)c1cc(OC)c(OC)c(OC)c1 | 200 nM | 400 nM | 1100 nM | 600 nM | 1.3 µg/mL (≈ 3.83 µM) | Active | – | – | – | – |
| C=C(c1ccc(N(C)C)c(C#N)c1)c1cc(OC)c(OC)c(OC)c1 | 400 nM | 800 nM | > 5000 nM | 960 nM | 84 µg/mL (≈ 248 µM) | – | – | – | – | – |
| C=C(c1cc(OC)c(OC)c(OC)c1)c1ccc2c(c1)c1ccccc1n2CC | 80 nM | 90 nM | 900 nM | 200 nM | 2.5 µg/mL (≈ 6.45 µM) | Active | – | – | – | – |
| COc1cc(C(=O)c2ccc(N3CCCC3)cc2)cc(OC)c1OC | 800 nM | 800 nM | > 5000 nM | > 1000 nM | 2.6 µg/mL (≈ 7.62 µM) | – | – | – | – | – |
| C=C(c1ccc(N(C)C)c(N)c1)c1cc(OC)c(OC)c(OC)c1 | 500 nM | 400 nM | > 5000 nM | 600 nM | – | – | – | – | – | – |
| COc1cc(C(=O)c2ccc(N(C)C)c([N+](=O)[O-])c2)cc(OC)c1OC | > 1000 nM | > 1000 nM | > 20000 nM | > 1000 nM | 3.7 µg/mL (≈ 10.3 µM) | – | – | – | – | – |
| C=C(c1cc(OC)c(OC)c(OC)c1)c1ccc(N(C)C)c(C2OCCO2)c1 | 600 nM | 800 nM | > 5000 nM | > 1000 nM | 11 µg/mL (≈ 28.5 µM) | – | – | – | – | – |
| COc1cc(/C(=N/O)c2ccc(N(C)C)cc2)cc(OC)c1OC | 800 nM | 600 nM | > 10000 nM | 10000 nM | 74 µg/mL (≈ 224 µM) | – | – | – | – | – |
| C/C=C(/c1cc(OC)c(OC)c(OC)c1)c1ccc2c(c1)c1ccccc1n2CC | 700 nM | 400 nM | 1500 nM | 560 nM | 1.8 µg/mL (≈ 4.48 µM) | inactive | – | – | – | – |

Reference: ChEMBL document CHEMBL3593188, “Exploring the size adaptability of the B ring binding zone of the colchicine site of tubulin with para-nitrogen substituted isocombretastatins” (Eur J Med Chem, 2015)
